Read-outs that look alike come from different tables or passages of the source.
What was measured:
Myzus persicae [1] = test: Myzus persicae oral test (MYZUPE O); format: in vivo; settings: for Emax at 0.8 ppm / Emax at 4 ppm / pest or weed control at 20 ppm: Myzus persicae, po, 120 h; for Emax at 0.8 ppm / Emax at 4 ppm / % efficacy: MYZUPE O, 5 dat; for Emax at 0.8 ppm / Emax at 4 ppm: read-out: % efficacy; for pest or weed control at 20 ppm / efficacy: after 5 days, application rate 20 ppm; for pest or weed control at 20 ppm: read-out: efficacy
Description: Solvent: 100 parts by weight of acetone
To produce a suitable preparation of active compound, 1 part by weight of active compound is dissolved using the specified parts by weight of solvent and made up with water until the desired concentration is attained.
50 μl of the active compound preparation are transferred into microtitre plates and made up to a final volume of 200 μl with 150 μl of IPL41 insect medium (33%+15% sugar). Subsequently, the plates are sealed with parafilm, which a mixed population of green peach aphids (Myzus persicae) within a second microtitre plate is able to puncture and imbibe the solution through it.
After 5 days, the efficacy in % is determined. 100% means that all the aphids have been killed; 0% means that no aphids have been killed.
Myzus persicae—Oral Test (MYZUPE O)
After 5 or 6 days (dat), the efficacy in % is determined. 100% means that all the aphids have been killed; 0% means that no aphids have been killed.

Aphis gossypii = Aphis gossypii spray test on cotton plants; format: in vivo; settings: after 6 days, application rate 20 ppm, cotton plants; for pest or weed control at 20 ppm: Aphis gossypii, 144 h, read-out: efficacy (kill)
Description: Aphis gossypii—Spray Test
Solvent: 14 parts by weight of dimethylformamide
Emulsifier: alkylaryl polyglycol ether
To produce a suitable preparation of active compound, 1 part by weight of active compound is dissolved using the specified parts by weight of solvent and made up with water containing an emulsifier concentration of 1000 ppm until the desired concentration is attained. To produce further test concentrations, the formulation is diluted with emulsifier-containing water. If the addition of ammonium salts or/and penetrants is required, these are each added in a concentration of 1000 ppm to the formulation solution.
Cotton plants (Gossypium hirsutum) which are heavily infested by the cotton aphid (Aphis gossypii) are sprayed with an active compound formulation of the desired concentration.
After 6 days, the kill in % is determined. 100% means that all the aphids have been killed; 0% means that no aphids have been killed.

Myzus persicae [2] = test: Myzus persicae spray test (MYZUPE), Chinese cabbage leaf discs; format: in vivo; settings: for pest or weed control at 500 g/ha / Emax at 100 g/ha: Myzus persicae, foliar; for pest or weed control at 500 g/ha / efficacy: application rate 500 g/ha; for pest or weed control at 500 g/ha: read-out: efficacy; for Emax at 100 g/ha: read-out: % efficacy
Description: Myzus persicae—Spray Test
(§1) To produce a suitable preparation of active compound, 1 part by weight of active compound is dissolved using the specified parts by weight of solvent and made up with water containing an emulsifier concentration of 1000 ppm until the desired concentration is attained. To produce further test concentrations, the formulation is diluted with emulsifier-containing water.
Discs of Chinese cabbage leaves (Brassica pekinensis) infested by all stages of the green peach aphid (Myzus persicae) are sprayed with an active compound formulation of the desired concentration.
After 5 or 6 days, the efficacy in % is determined. 100% means that all the aphids have been killed; 0% means that no aphids have been killed.
Myzus persicae—Spray Test (MYZUPE)
Discs of Chinese cabbage leaves (Brassica pekinensis) infested by all stages of the green peach aphid (Myzus persicae) are sprayed with an active compound preparation of the desired concentration.
After the desired period of time, the efficacy in % is determined. 100% means that all the aphids have been killed; 0% means that no aphids have been killed.

[3] = log P by HPLC on reversed-phase columns (OECD Guideline 117), neutral range; format: physicochemical; settings: for chromatographic logP: reversed-phase (C18) HPLC column, read-out: LogP-neutral
Tetranychus urticae = Tetranychus urticae spray test, OP-resistant, bean leaf discs; format: in vivo; settings: after 6 days, application rate 500 g/ha
Description: Tetranychus urticae—Spray Test, OP-Resistant
as §1
Discs of bean leaves (Phaseolus vulgaris) infested with all stages of the greenhouse red spider mite (Tetranychus urticae) are sprayed with an active compound formulation of the desired concentration.
After 6 days, the efficacy in % is determined. 100% means that all the spider mites have been killed; 0% means that no spider mites have been killed.

[4] = 144 h, MYZUPE, 100 g of ai/ha, 6 dat
[5] = 120 h, MYZUPE, 100 g of ai/ha, 5 dat

SMILES | efficacy (Myzus persicae [1]) [%] | efficacy (kill) (Aphis gossypii) [%] | LogP-neutral ([3]; pH 7.8) | efficacy (Myzus persicae [2]; after 5 days) [%] | further results
COc1ncc(C(=O)N(C)c2cccnc2)n1C [Example II-12] | – | – | – | – | Emax at 0.8 ppm (Myzus persicae [1]; 0.8 ppm): 100%; Emax at 4 ppm (Myzus persicae [1]; 4 ppm): 100%; pest or weed control at 20 ppm (Myzus persicae [1]): 100%; pest or weed control at 20 ppm (Aphis gossypii): 100%; pest or weed control at 500 g/ha (Myzus persicae [2]; 120 h, after 5 days): 100%; Emax at 100 g/ha (Myzus persicae [2]; [4]): 90%; chromatographic logP ([3]; HPLC, neutral range pH 7.8): 0.9
CN(C(=O)c1cnc(Oc2ccc(Cl)nc2)n1C)c1cccnc1 [Example II-15] | – | – | – | – | Emax at 0.8 ppm (Myzus persicae [1]; 0.8 ppm): 100%; pest or weed control at 20 ppm (Myzus persicae [1]): 100%; pest or weed control at 20 ppm (Aphis gossypii): 100%; Emax at 100 g/ha (Myzus persicae [2]; [4]): 100%; pest or weed control at 500 g/ha (Myzus persicae [2]; 144 h, after 6 days): 100%; chromatographic logP ([3]; HPLC, neutral range pH 7.8): 1.53
CN(C(=O)c1cnc(Oc2ccc(F)cc2F)n1C)c1cccnc1 [Example II-17] | 100 | 100 | 1.86 | – | efficacy (Myzus persicae [2]; after 6 days): 100%
CN(C(=O)c1cnc(Oc2ccccc2)n1C)c1cccnc1 [Example II-24] | 100 | 98 | – | 100 | LogP-neutral ([3]; HPLC, neutral range pH 7.8): 1.68
CN(C(=O)c1cnc(Oc2cc(F)cc(F)c2)n1C)c1cccnc1 [Example II-25] | 100 | 90 | 2.01 | 90 | –
CSc1cccc(Oc2ncc(C(=O)N(C)c3cccnc3)n2C)c1 [Example II-26] | 100 | 100 | 2.09 | 100 | –
CN(C(=O)c1cnc(Oc2cccc(OC(F)(F)F)c2)n1C)c1cccnc1 [Example II-27] | 100 | 98 | 2.52 | 100 | –
CN(C(=O)c1cnc(Oc2cccc(C(F)(F)F)c2)n1C)c1cccnc1 [Example II-29] | – | – | – | – | Emax at 0.8 ppm (Myzus persicae [1]; 0.8 ppm): 100%; Emax at 4 ppm (Myzus persicae [1]; 4 ppm): 100%; pest or weed control at 20 ppm (Myzus persicae [1]): 100%; pest or weed control at 20 ppm (Aphis gossypii): 100%; Emax at 100 g/ha (Myzus persicae [2]; [5]): 90%; pest or weed control at 500 g/ha (Myzus persicae [2]; 120 h, after 5 days): 100%; chromatographic logP ([3]; HPLC, neutral range pH 7.8): 2.37
CN(C(=O)c1cnc(OCCSCC(F)(F)F)n1C)c1cccnc1 [Example II-30] | 100 | 100 | 1.97 | 100 | % efficacy (Myzus persicae [1]; 0.8 ppm): 100%; % efficacy (Myzus persicae [1]; 4 ppm): 100%; % efficacy (Myzus persicae [2]; MYZUPE, 100 g of ai/ha, 5 dat): 90%
CN(C(=O)c1cnc(OC2CCSCC2)n1C)c1cccnc1 [Example II-31] | – | – | – | – | Emax at 0.8 ppm (Myzus persicae [1]; 0.8 ppm): 70%; Emax at 4 ppm (Myzus persicae [1]; 4 ppm): 100%; pest or weed control at 20 ppm (Myzus persicae [1]): 100%; pest or weed control at 20 ppm (Aphis gossypii): 98%; Emax at 100 g/ha (Myzus persicae [2]; [5]): 90%; pest or weed control at 500 g/ha (Myzus persicae [2]; 120 h, after 5 days): 100%; chromatographic logP ([3]; HPLC, neutral range pH 7.8): 1.63
CN(C(=O)c1cnc(OC2CCOCC2)n1C)c1cccnc1 [Example II-32] | 100 | 100 | 1.18 | 90 | –
CN(C(=O)c1cnc(OCCCF)n1C)c1cccnc1 [Example II-33] | 100 | 100 | – | 90 | LogP-neutral ([3]; HPLC, neutral range pH 7.8): 1.26
CN(C(=O)c1cnc(OCCC(F)(C(F)(F)F)C(F)(F)F)n1C)c1cccnc1 [Example II-34] | 100 | 100 | 2.51 | 100 | –
CN(C(=O)c1cnc(OC2CCOC2)n1C)c1cccnc1 (stereo not shown) [Example II-35] | 100 | 100 | – | 90 | LogP-neutral ([3]; HPLC, neutral range pH 7.8): 1
CCN(C(=O)c1cnc(Oc2ccc(Cl)nc2)n1C)c1cccnc1 [Example II-36] | 100 | 100 | – | 90 | LogP-neutral ([3]; HPLC, neutral range pH 7.8): 1.79
CN(C(=O)c1cnc(OCCCC#N)n1C)c1cccnc1 [Example II-38] | 100 | 98 | – | 90 | LogP-neutral ([3]; HPLC, neutral range pH 7.8): 1.08
CN(C(=O)c1cnc(Oc2cncc(Cl)c2)n1C)c1cccnc1 [Example II-41] | 100 | 100 | 1.57 | 100 | –
CN(C(=O)c1cnc(Oc2cncc(F)c2)n1C)c1cccnc1 [Example II-42] | 100 | 100 | 1.3 | 90 | –
CN(C(=O)c1cnc(Oc2cncc(C(F)(F)F)c2)n1C)c1cccnc1 [Example II-43] | 100 | 100 | 1.83 | 90 | –
CCN(C(=O)c1cnc(OC(C)C)n1C)c1cccnc1 [Example II-46] | 100 | 100 | 1.7 | 100 | –
CCN(C(=O)c1cnc(OCCCC#N)n1C)c1cccnc1 [Example II-47] | 100 | 100 | – | 90 | LogP-neutral ([3]; HPLC, neutral range pH 7.8): 1.33
CN(C(=O)c1cnc(Oc2ccc(C#N)nc2)n1C)c1cccnc1 [Example II-58] | 100 | 100 | – | 90 | LogP-neutral ([3]; HPLC, neutral range pH 7.8): 1.1
CN(C(=O)c1cnc(Oc2cccc(Oc3ccccc3)c2)n1C)c1cccnc1 [Example II-81] | – | – | 2.72 | – | efficacy (Tetranychus urticae): 100%
CCCCSc1cccc(Oc2ncc(C(=O)N(C)c3cccnc3)n2C)c1 [Example II-82] | 100 | – | 3.19 | 100 | efficacy (Tetranychus urticae): 100%
CN(C(=O)c1cnc(Oc2cc(Cl)cc(C(F)(F)F)c2)n1C)c1cccnc1 [Example II-87] | 100 | – | 2.87 | 90 | efficacy (Tetranychus urticae): 90%
Cn1c(C(=O)N(c2cccnc2)C2CC2)cnc1Oc1cccc(C(F)(F)F)c1 [Example II-94] | 100 | – | 2.59 | – | efficacy (Tetranychus urticae): 90%
